Test results: patent US9187471B2, “Pyrido [4,3-b] indole and pyrido [3,4-b] indole derivatives and methods of use” (Medivation Technologies, Inc., priority 2010, dated 2015)

Legend:
[1] = molecular target: T1, human recombinant serotonin (5-Hydroxytryptamine) 5-HT2A receptor (Homo sapiens, UniProt P28223); assay: Serotonin 5-HT2A radioligand binding ([3H]Ketanserin); conditions: compound at 0.1 μM; read-out: Inhibition of ligand binding, Serotonin 5-HT2A (percent inhibition of specific binding)
T1 construct: expressed in transfected cells; host or cells: CHO-K1
Procedure: Compounds of the invention were incubated with 0.5 nM [^3H]Ketanserin for 60 min at 25° C. Non-specific binding was estimated in the presence of 1 μM Mianserin. Receptor proteins were filtered and washed, the filters were then counted to determine [^3H]Ketanserin specifically bound.

[2] = molecular target: T2, human recombinant serotonin (5-Hydroxytryptamine) 5-HT6 receptor (Homo sapiens, UniProt P50406); assay: Serotonin 5-HT6 radioligand binding ([3H]LSD); conditions: compound at 0.1 μM; read-out: Inhibition of ligand binding, Serotonin 5-HT6 (percent inhibition of specific binding)
T2 construct: expressed in transfected cells; host or cells: HeLa
Description: Receptor proteins were filtered and washed, the filters were then counted to determine [3H]LSD specifically bound.

[3] = molecular target: T3, human recombinant dopamine D2L receptor (Homo sapiens, UniProt P14416); assay: Dopamine D2L radioligand binding ([3H]Spiperone); conditions: read-out: Dopamine D2L (1 μM), percent inhibition of specific binding; compound at 1 μM; 0.16 nM [3H]Spiperone
T3 construct: expressed in transfected cells; host or cells: CHO
Procedure: Non-specific binding was estimated in the presence of 10 μM Haloperidol. Receptor proteins were filtered and washed, the filters were then counted to determine [^3H]Spiperone specifically bound.

[4] = molecular target: T4, human recombinant serotonin (5-Hydroxytryptamine) 5-HT7 receptor (Homo sapiens, UniProt P34969); assay: Serotonin 5-HT7 radioligand binding ([3H]LSD); conditions: compound at 0.1 μM; read-out: Inhibition of ligand binding, Serotonin 5-HT7 (percent inhibition of specific binding)
T4 construct: expressed in transfected cells; host or cells: CHO
Procedure: Lysergic acid diethylamide (LSD) for 120 min. at 25° C. […] Receptor proteins were filtered and washed, the filters were then counted to determine [^3H]LSD specifically bound.

[5] = molecular target: T5, human recombinant serotonin (5-Hydroxytryptamine) 5-HT2C receptor (Homo sapiens, UniProt P28335); assay: Serotonin 5-HT2C radioligand binding ([3H]Mesulergine); conditions: compound at 0.1 μM; read-out: Inhibition of ligand binding, Serotonin 5-HT2C (percent inhibition of specific binding)
T5 construct: expressed in transfected cells; host or cells: CHO-K1
T5 sequence (P28335 33-458): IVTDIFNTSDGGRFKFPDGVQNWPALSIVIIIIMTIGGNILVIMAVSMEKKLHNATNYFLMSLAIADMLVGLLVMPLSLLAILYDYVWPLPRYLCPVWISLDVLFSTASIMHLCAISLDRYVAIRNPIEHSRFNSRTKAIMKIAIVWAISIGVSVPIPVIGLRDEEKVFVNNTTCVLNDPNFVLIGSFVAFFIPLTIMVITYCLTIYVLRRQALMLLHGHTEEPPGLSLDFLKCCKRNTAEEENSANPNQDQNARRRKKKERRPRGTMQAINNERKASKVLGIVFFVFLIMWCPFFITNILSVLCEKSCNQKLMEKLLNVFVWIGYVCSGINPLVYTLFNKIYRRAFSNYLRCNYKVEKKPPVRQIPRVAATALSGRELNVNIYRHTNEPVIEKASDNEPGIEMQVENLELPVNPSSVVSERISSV
Procedure: Compounds of the invention were incubated with 1 nM [^3H]Mesulergine for 60 min at 25° C. Non-specific binding was estimated in the presence of 1 μM Mianserin. Receptor proteins were filtered and washed, the filters were then counted to determine [^3H]Mesulergine specifically bound.

[6] = molecular target: T6, human recombinant histamine H1 receptor (Homo sapiens, UniProt P35367); assay: Histamine H1 radioligand binding ([3H]Pyrilamine); conditions: read-out: Histamine H1 Binding (1 μM), percent inhibition of specific binding; compound at 1 μM; 1.2 nM [3H]Pyrilamine
T6 construct: expressed in transfected cells; host or cells: CHO-K1
Procedure: To evaluate in radioligand binding assays the activity of compounds of the invention, human recombinant histamine H1 receptor expressed in Chinese hamster ovary (CHO) K1 cells (De Backer, M. et al, Biochem. Biophys. Res. Comm. 197(3):1601, 1993) in a modified Tris-HCl buffer (50 mM Tris-HCl, pH 7.4, 2 mM MgCl2, 100 mM NaCl, 250 mM Sucrose) was used. […] Non-specific binding was estimated in the presence of 1 μM Pyrilamine. Receptor proteins were filtered and washed, the filters were then counted to determine [^3H]Pyrilamine specifically bound. […] Biochemical assay results are presented as the percent inhibition of specific binding in Table 2.

T2 sequence (P50406 whole entry): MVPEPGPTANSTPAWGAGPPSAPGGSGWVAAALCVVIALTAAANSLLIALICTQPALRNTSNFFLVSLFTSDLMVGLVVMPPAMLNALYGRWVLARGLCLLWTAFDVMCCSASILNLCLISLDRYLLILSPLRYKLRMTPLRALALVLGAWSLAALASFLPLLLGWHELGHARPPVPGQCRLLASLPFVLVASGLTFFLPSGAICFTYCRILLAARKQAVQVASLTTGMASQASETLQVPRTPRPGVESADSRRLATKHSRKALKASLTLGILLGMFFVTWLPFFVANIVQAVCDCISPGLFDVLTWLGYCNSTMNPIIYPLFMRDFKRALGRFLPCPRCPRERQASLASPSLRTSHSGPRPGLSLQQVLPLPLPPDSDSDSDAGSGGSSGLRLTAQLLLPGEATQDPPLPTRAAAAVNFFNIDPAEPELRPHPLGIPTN
T6 sequence (P35367 whole entry): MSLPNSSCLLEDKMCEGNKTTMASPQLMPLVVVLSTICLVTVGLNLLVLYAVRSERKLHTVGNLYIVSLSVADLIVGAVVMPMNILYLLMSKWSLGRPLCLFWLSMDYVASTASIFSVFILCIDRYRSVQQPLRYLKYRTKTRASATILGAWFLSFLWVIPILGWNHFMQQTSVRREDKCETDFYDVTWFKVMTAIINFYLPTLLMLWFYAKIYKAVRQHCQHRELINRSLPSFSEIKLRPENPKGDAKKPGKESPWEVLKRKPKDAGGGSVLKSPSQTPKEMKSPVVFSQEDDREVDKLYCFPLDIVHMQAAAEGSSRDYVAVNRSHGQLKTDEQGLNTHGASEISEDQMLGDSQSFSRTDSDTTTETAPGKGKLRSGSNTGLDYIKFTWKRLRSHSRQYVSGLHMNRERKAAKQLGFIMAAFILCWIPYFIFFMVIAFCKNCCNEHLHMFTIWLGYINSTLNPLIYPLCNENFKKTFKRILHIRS
T1 sequence (P28223 whole entry): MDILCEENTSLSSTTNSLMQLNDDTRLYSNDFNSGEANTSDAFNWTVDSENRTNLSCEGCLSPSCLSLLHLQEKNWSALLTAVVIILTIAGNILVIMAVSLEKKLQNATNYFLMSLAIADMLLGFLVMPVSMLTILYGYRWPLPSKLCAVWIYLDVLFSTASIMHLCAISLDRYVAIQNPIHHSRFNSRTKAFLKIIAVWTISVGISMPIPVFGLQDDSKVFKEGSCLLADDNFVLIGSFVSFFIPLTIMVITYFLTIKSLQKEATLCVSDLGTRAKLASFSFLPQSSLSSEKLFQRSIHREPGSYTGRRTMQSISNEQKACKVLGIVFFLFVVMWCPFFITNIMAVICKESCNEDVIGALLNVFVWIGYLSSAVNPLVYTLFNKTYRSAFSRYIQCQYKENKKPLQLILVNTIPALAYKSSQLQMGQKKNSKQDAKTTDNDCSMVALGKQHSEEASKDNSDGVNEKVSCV
T4 sequence (P34969 whole entry): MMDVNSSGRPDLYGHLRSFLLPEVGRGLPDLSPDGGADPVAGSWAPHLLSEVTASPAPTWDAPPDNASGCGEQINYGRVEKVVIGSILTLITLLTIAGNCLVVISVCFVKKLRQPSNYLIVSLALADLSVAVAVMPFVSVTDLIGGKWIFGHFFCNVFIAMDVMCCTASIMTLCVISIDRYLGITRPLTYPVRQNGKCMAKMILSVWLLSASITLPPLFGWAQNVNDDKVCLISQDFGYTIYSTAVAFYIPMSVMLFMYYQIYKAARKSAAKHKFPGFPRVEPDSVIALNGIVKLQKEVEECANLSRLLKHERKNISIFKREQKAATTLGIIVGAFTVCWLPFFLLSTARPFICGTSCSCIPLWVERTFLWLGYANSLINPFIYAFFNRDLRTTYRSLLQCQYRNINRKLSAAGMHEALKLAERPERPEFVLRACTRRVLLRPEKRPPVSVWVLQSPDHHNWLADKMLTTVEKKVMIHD
T3 sequence (P14416 whole entry): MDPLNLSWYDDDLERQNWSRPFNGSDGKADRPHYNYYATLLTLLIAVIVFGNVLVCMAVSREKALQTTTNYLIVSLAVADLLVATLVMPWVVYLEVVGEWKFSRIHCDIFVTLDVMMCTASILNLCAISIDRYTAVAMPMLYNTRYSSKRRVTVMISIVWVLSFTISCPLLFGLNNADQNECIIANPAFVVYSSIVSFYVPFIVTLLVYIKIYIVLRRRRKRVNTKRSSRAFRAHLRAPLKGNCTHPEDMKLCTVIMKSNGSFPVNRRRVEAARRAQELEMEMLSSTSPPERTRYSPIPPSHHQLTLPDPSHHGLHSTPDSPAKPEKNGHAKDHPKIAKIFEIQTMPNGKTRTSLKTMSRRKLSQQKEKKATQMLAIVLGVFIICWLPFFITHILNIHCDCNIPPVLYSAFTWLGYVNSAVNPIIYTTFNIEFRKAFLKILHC

Cc1ccc2c(c1)c1c(n2-c2ccc3ccccc3c2)CCN(C)C1 [Compound 12, 2,8-dimethyl-5-naphthalen-2-yl-2,3,4,5-tetrahydro-1H-pyrido[4,3-b]indole]
inhibition at 0.1 µM [1]: 94% | inhibition at 0.1 µM [2]: 63% | inhibition at 1 µM [3]: 84% | inhibition at 0.1 µM [4]: 3% | inhibition at 0.1 µM [5]: 93% | inhibition at 1 µM [6]: 24%

CN1CCc2c(c3cc(Cl)ccc3n2-c2cscc2-c2ccc(F)cc2)C1 [Compound 25]
inhibition at 0.1 µM [1]: 81% | inhibition at 0.1 µM [2]: 56% | inhibition at 1 µM [3]: 39% | inhibition at 0.1 µM [4]: 94% | inhibition at 0.1 µM [5]: 91% | inhibition at 1 µM [6]: 80%

Cc1ccc2c(c1)c1c(n2-c2cccc3cnccc23)CCN(C)C1 [Compound 9, 5-isoquinolin-5-yl-2,8-dimethyl-2,3,4,5-tetrahydro-1H-pyrido[4,3-b]indole]
inhibition at 0.1 µM [1]: 54% | inhibition at 0.1 µM [2]: 5% | inhibition at 1 µM [3]: 0% | inhibition at 0.1 µM [4]: 59% | inhibition at 0.1 µM [5]: 77% | inhibition at 1 µM [6]: 65%

Cc1ccc2c(c1)c1c(n2-c2ccc3ncccc3c2)CCN(C)C1 [Compound 24, 2,8-dimethyl-5-quinolin-6-yl-2,3,4,5-tetrahydro-1H-pyrido[4,3-b]indole]
inhibition at 0.1 µM [1]: 72% | inhibition at 0.1 µM [2]: 12% | inhibition at 1 µM [3]: 45% | inhibition at 0.1 µM [4]: 25% | inhibition at 0.1 µM [5]: 66% | inhibition at 1 µM [6]: 10%

Cc1ccc2c(c1)c1c(n2-c2ccccc2-c2cccnc2)CCN(C)C1 [Compound 13, 2,8-dimethyl-5-(2-pyridin-3-yl-phenyl)-2,3,4,5-tetrahydro-1H-pyrido[4,3-b]indole]
inhibition at 0.1 µM [1]: 73% | inhibition at 0.1 µM [2]: 14% | inhibition at 1 µM [3]: 21% | inhibition at 0.1 µM [4]: 47% | inhibition at 0.1 µM [5]: 73% | inhibition at 1 µM [6]: 72%

Cc1ccc2c(c1)c1c(n2-c2ccncc2)CCN(C)C1 [Compound 2, 2,8-dimethyl-5-pyridin-4-yl-2,3,4,5-tetrahydro-1H-pyrido[4,3-b]indole]
inhibition at 0.1 µM [1]: 74% | inhibition at 0.1 µM [2]: 17% | inhibition at 1 µM [3]: 13% | inhibition at 0.1 µM [4]: 36% | inhibition at 0.1 µM [5]: 54% | inhibition at 1 µM [6]: 51%

Cc1ccc2c(c1)c1c(n2-c2ccccc2-c2ccc(S(N)(=O)=O)cc2)CCN(C)C1 [Compound No. 163, 2′-(2,8-dimethyl-3,4-dihydro-1H-pyrido[4,3-b]indol-5(2H)-yl)biphenyl-4-sulfonamide]
inhibition at 0.1 µM [1]: 73% | inhibition at 0.1 µM [2]: 13% | inhibition at 0.1 µM [4]: 36%

Cc1ccc2c(c1)c1c(n2-c2ccccc2-c2ccc(S(C)(=O)=O)cc2)CCN(C)C1 [Compound No. 160, 2,8-dimethyl-5-(4′-(methylsulfonyl)biphenyl-2-yl)-2,3,4,5-tetrahydro-1H-pyrido[4,3-b]indole]
inhibition at 0.1 µM [1]: 36% | inhibition at 0.1 µM [2]: 18% | inhibition at 0.1 µM [4]: 17%

Cc1ccc2c(c1)c1c(n2-c2ncccc2-c2ccncc2)CCN(C)C1 [Compound No. 161, 5-(3,4′-bipyridin-2-yl)-2,8-dimethyl-2,3,4,5-tetrahydro-1H-pyrido[4,3-b]indole]
inhibition at 0.1 µM [1]: 17% | inhibition at 0.1 µM [2]: 4% | inhibition at 0.1 µM [4]: 18%

Cc1ccc2c(c1)c1c(n2-c2cnc(C)c3ccccc23)CCN(C)C1 [Compound No. 164, 2,8-dimethyl-5-(1-methylisoquinolin-4-yl)-2,3,4,5-tetrahydro-1H-pyrido[4,3-b]indole]
inhibition at 0.1 µM [1]: 23% | inhibition at 0.1 µM [2]: 1% | inhibition at 0.1 µM [4]: 4%

Cc1ccc2c(c1)c1c(n2-c2ccccc2-c2cnccc2C)CCN(C)C1 [Compound No. 159, 2,8-dimethyl-5-(2-(4-methylpyridin-3-yl)phenyl)-2,3,4,5-tetrahydro-1H-pyrido[4,3-b]indole]
inhibition at 0.1 µM [1]: 48% | inhibition at 0.1 µM [2]: 0% | inhibition at 0.1 µM [4]: 19%
